Test results from publication PMC11506481, “Influence of Harvesting Stage on Phytochemical Composition, Antioxidant, and Antidiabetic Activity of Immature Ceratonia siliqua L. Pulp from Béni Mellal-Khénifra Region, Morocco: In Silico, In Vitro, and In Vivo Approaches” (Current Issues in Molecular Biology, 2024).
Values after ≈ are worked out from the molar mass of the structure shown.

Target: T1, intestinal α-glucosidase
T1 construct: gene MAL12; human 5NN8 only used for docking
Test: sucrose hydrolysis, GOD-POD glucose read-out at […] nm
Format: biochemical
Conditions: sucrose as substrate; phosphate buffer pH 7.5; 37 °C

With `C[C@H]1O[C@H](O[C@H]2[C@H](O)[C@@H](O)[C@@H](O[C@H]3[C@H](O)[C@@H](O)C(O)O[C@@H]3CO)O[C@@H]2CO)[C@H](O)[C@@H](O)[C@@H]1N[C@H]1C=C(CO)[C@@H](O)[C@H](O)[C@H]1O` (stereo partly shown) [acarbose] the “IC50” value was 0.089 ± 0.004 µg/mL (≈ 0.138 µM).
